Patent publication EP3822285A1, “VARIANT NISIN PEPTIDES” (University College Cork-National University of Ireland, Cork, priority 2019, dated 2021)
In brackets after ≈: the same amount, converted by molar mass. Several values for one entry are separate records, joined by “and”; a condition that tells them apart may be missing. Equal values may be shown once. Marks after values point to notes of the source that are not given here.

Columns and labels:
Assay type in all cases: cell-based
Thermus scotoductus SE-1 = assay: Agar diffusion assay with cell free supernatant of producing strains; details: zone diameter relative to Nisin A wild type (100)
Method: (§1) Agar diffusion assays were carried out in triplicate using nisin producing and indicator (T. thermophilus HB27 and T. scotoductus Se-1) strains. Both the producer and indicator strains were cultured as per conditions described above. One ml of overnight culture of indicators were added to 50ml of molten Castenholz agar, briefly swirled and poured. Wells were made using sterile glass pipette. To generate cell free supernatant from nisin producing strains, 10 mls of overnight cultures of the strains were centrifuged at 950g for 20 mins. The cell free supernatant was transferred to a sterile tube. 50 µl of cell free supernatant was added to wells described above. Plates were incubated at 55°C for 3 days and the zone of clearance measured.
(§2) The cell free supernatant of nisin A and nisin variant producing L. lactis was used to determine the bioactivity of these lantibiotics against T. thermophilus HB27 and T. scotoductus SE-1 using agar diffusion assays, with the zone of clearance representing the bioactivity of the producing strain (i.e., representing a combination of the amount of the peptide produced and the specific activity of that peptide). […] Among the variants tested were those with altered N-terminal domains. The N-terminal domain of nisin is important for binding with the pyrophosphate moiety of lipid II to mediate pore formation in the cell membrane. Lysine (K) at position 12, which serves as a small flexible region between ring B and C, and is one of among the 5 positively charged residues (K12, K22, K34, H27, […]) of nisin A that contributes to its cationic nature and its attraction to the cell envelope.

[1] = test system: Thermus thermophilus HB27; assay: as above; details: zone diameter relative to Nisin A wild type (100)
Method: as §1, §2

T. aquaticus = assay: Minimum inhibitory concentration assay (Thermus); details: pure peptide, mean of triplicate assays
Method: (§3) Minimum inhibitory concentration (MIC) determinations for gram negative Thermus strains were carried out in triplicate in round bottom microtitre plates (Corning). 96 well microtitre plates were pre-treated with bovine serum albumin (BSA) prior to addition of the peptides. Briefly, to each well of the microtire plates 200 µl of d.H2O (filtered with 0.2 µm filter) containing 1% (w/w) BSA was added and incubated at 37°C for 30 mins. The wells were washed with 200 µl of IX phosphate buffered saline (PBS) for 2 times after removing 1% BSA d.H2O. 100 µl of growth media, i.e., Castenholz, was added to each well. […] Target strains were grown overnight as per conditions mention above, 0.5 ml of overnight was subcultured in to 10 mls of fresh Castenholz medium and allowed to grow to an OD600 of ∼0.5. 20µl of this subculture was added to 980µl of media, 150µl of this dilution added to 14.85 ml of growth media. 100µl of this dilution added to each well resulting in a final inoculum of ∼10^5 cfu/ml in 200µl. The plates were incubated at 55° C for 3 days and the MIC was determined as the lowest concentration at which no growth was visible.
(§4) The bioactivity of cell-free supernatant can be influenced by altered diffusion rates, solubility, production or specific activity. To determine to what extent, if any, the bioactivity noted above is due to increased specific activity, nisin A (control) and the derivatives were purified and their molecular weights confirmed by MALDI TOF mass spectrometry (Table: 6) (Figure: 4). These peptides were used to perform minimum inhibitory concentration assays against six Thermus strains, i.e., T. thermophilus HB27, T. scotoductus SE-1, T. rehai, T. oshimai, T. aquaticus and T. brockianus.

T. brockianus = assay: Minimum inhibitory concentration assay (Thermus); details: pure peptide, mean of triplicate assays
Method: as §3, §4

T. oshimai = assay: Minimum inhibitory concentration assay (Thermus); details: pure peptide, mean of triplicate assays
Method: as §3, §4

T. rehai = assay: Minimum inhibitory concentration assay (Thermus); details: pure peptide, mean of triplicate assays
Method: as §3, §4

T. scotoductus SE-1 = assay: Minimum inhibitory concentration assay (Thermus); details: pure peptide, mean of triplicate assays
Method: as §3, §4

T. thermophilus HB27 = assay: Minimum inhibitory concentration assay (Thermus); details: for MIC: pure peptide, mean of triplicate assays
Method: as §3, §4

## C=C(NC(=O)[C@@H](NC(=O)[C@H](Cc1c[nH]cn1)NC(=O)[C@@H](NC(=O)[C@H](CO)NC(=O)[C@@H]1CS[C@@H](C)[C@H]2NC(=O)[C@H](C)NC(=O)[C@H](NC(=O)[C@H](CCCCN)NC(=O)[C@H](CCSC)NC(=O)[C@H](CO)NC(=O)[C@@H]3CS[C@@H](C)[C@@H](NC(=O)[C@H](CCCCN)NC(=O)[C@@H]4CS[C@@H](C)[C@@H](NC(=O)[C@@H]5CSC[C@@H](NC(=O)/C(=C/C)NC(=O)[C@@H](N)[C@@H](C)CC)C(=O)N[C@@H]([C@@H](C)CC)C(=O)NC(=C)C(=O)N[C@@H](CC(C)C)C(=O)N5)C(=O)N5CCC[C@H]5C(=O)NCC(=O)N4)C(=O)NCC(=O)N[C@@H](C)C(=O)N[C@@H](CC(C)C)C(=O)N[C@@H](CCSC)C(=O)NCC(=O)N3)[C@H](C)SC[C@H](NC2=O)C(=O)N[C@@H](Cc2c[nH]cn2)C(=O)N1)[C@@H](C)CC)C(C)C)C(=O)N[C@@H](CCCCN)C(=O)O [N20S]
Thermus scotoductus SE-1
  % of wild type: 112%
[1]
  % difference: 119%
T. aquaticus
  MIC: 0.0078 µM (≈ 0.026 µg/mL)
T. brockianus
  MIC: 0.0156 µM (≈ 0.0519 µg/mL)
T. oshimai
  MIC: 0.000975 µM (≈ 0.00324 µg/mL)
T. rehai
  MIC: 0.00195 µM (≈ 0.00649 µg/mL)
T. scotoductus SE-1
  MIC: 0.3125 µM (≈ 1.04 µg/mL)
T. thermophilus HB27
  MIC: 0.0039 µM (≈ 0.013 µg/mL)

## C=C(NC(=O)[C@@H](NC(=O)[C@H](Cc1c[nH]cn1)NC(=O)[C@@H](NC(=O)[C@H](CO)NC(=O)[C@@H]1CS[C@@H](C)[C@H]2NC(=O)[C@H](C)NC(=O)[C@H](NC(=O)[C@H](CCCCN)NC(=O)[C@H](CCSC)NC(=O)[C@H](CC(N)=O)NC(=O)[C@@H]3CS[C@@H](C)[C@@H](NC(=O)[C@H](CCSC)NC(=O)[C@@H]4CS[C@@H](C)[C@@H](NC(=O)[C@@H]5CSC[C@@H](NC(=O)/C(=C/C)NC(=O)[C@@H](N)[C@@H](C)CC)C(=O)N[C@@H]([C@@H](C)CC)C(=O)NC(=C)C(=O)N[C@@H](CC(C)C)C(=O)N5)C(=O)N5CCC[C@H]5C(=O)NCC(=O)N4)C(=O)NCC(=O)N[C@@H](C)C(=O)N[C@@H](CC(C)C)C(=O)N[C@@H](CCSC)C(=O)NCC(=O)N3)[C@H](C)SC[C@H](NC2=O)C(=O)N[C@@H](Cc2c[nH]cn2)C(=O)N1)[C@@H](C)CC)C(C)C)C(=O)N[C@@H](CCCCN)C(=O)O [K12M]
Thermus scotoductus SE-1
  % of wild type: 118%
[1]
  % difference: 118%
T. aquaticus
  MIC: 0.0156 µM (≈ 0.0524 µg/mL)
T. brockianus
  MIC: 0.0625 µM (≈ 0.21 µg/mL)
T. oshimai
  MIC: 0.0156 µM (≈ 0.0524 µg/mL)
T. rehai
  MIC: 0.0078 µM (≈ 0.0262 µg/mL)
T. scotoductus SE-1
  MIC: 0.125 µM (≈ 0.42 µg/mL)
T. thermophilus HB27
  MIC: 0.0156 µM (≈ 0.0524 µg/mL)

## C=C(NC(=O)[C@@H](NC(=O)[C@H](Cc1c[nH]cn1)NC(=O)[C@@H](NC(=O)[C@H](CO)NC(=O)[C@@H]1CS[C@@H](C)[C@H]2NC(=O)[C@H](C)NC(=O)[C@H](NC(=O)[C@H](CCCCN)NC(=O)[C@H](CCSC)NC(=O)[C@H](CC(N)=O)NC(=O)[C@@H]3CS[C@@H](C)[C@@H](NC(=O)[C@@H](NC(=O)[C@@H]4CS[C@@H](C)[C@@H](NC(=O)[C@@H]5CSC[C@@H](NC(=O)/C(=C/C)NC(=O)[C@@H](N)[C@@H](C)CC)C(=O)N[C@@H]([C@@H](C)CC)C(=O)NC(=C)C(=O)N[C@@H](CC(C)C)C(=O)N5)C(=O)N5CCC[C@H]5C(=O)NCC(=O)N4)[C@@H](C)O)C(=O)NCC(=O)N[C@@H](C)C(=O)N[C@@H](CC(C)C)C(=O)N[C@@H](CCSC)C(=O)NCC(=O)N3)[C@H](C)SC[C@H](NC2=O)C(=O)N[C@@H](Cc2c[nH]cn2)C(=O)N1)[C@@H](C)CC)C(C)C)C(=O)N[C@@H](CCCCN)C(=O)O [K12T]
Thermus scotoductus SE-1
  % of wild type: 140* (0.001) %
[1]
  % difference: 148* (.001) %
T. aquaticus
  MIC: 0.0312 µM (≈ 0.104 µg/mL)
T. brockianus
  MIC: 0.0625 µM (≈ 0.208 µg/mL)
T. oshimai
  MIC: 0.0312 µM (≈ 0.104 µg/mL)
T. rehai
  MIC: 0.0156 µM (≈ 0.0519 µg/mL)
T. scotoductus SE-1
  MIC: 0.0625 µM (≈ 0.208 µg/mL)
T. thermophilus HB27
  MIC: 0.0156 µM (≈ 0.0519 µg/mL)

## C=C(NC(=O)[C@@H](NC(=O)[C@H](Cc1c[nH]cn1)NC(=O)[C@@H](NC(=O)[C@H](CO)NC(=O)[C@@H]1CS[C@@H](C)[C@H]2NC(=O)[C@H](C)NC(=O)[C@H](NC(=O)[C@H](CCCCN)NC(=O)[C@H](CCC(N)=O)NC(=O)[C@H](CC(N)=O)NC(=O)[C@@H]3CS[C@@H](C)[C@@H](NC(=O)[C@H](CCCCN)NC(=O)[C@@H]4CS[C@@H](C)[C@@H](NC(=O)[C@@H]5CSC[C@@H](NC(=O)/C(=C/C)NC(=O)[C@@H](N)[C@@H](C)CC)C(=O)N[C@@H]([C@@H](C)CC)C(=O)NC(=C)C(=O)N[C@@H](CC(C)C)C(=O)N5)C(=O)N5CCC[C@H]5C(=O)NCC(=O)N4)C(=O)NCC(=O)N[C@@H](C)C(=O)N[C@@H](CC(C)C)C(=O)N[C@@H](CCSC)C(=O)NCC(=O)N3)[C@H](C)SC[C@H](NC2=O)C(=O)N[C@@H](Cc2c[nH]cn2)C(=O)N1)[C@@H](C)CC)C(C)C)C(=O)N[C@@H](CCCCN)C(=O)O [M21Q]
Thermus scotoductus SE-1
  % of wild type: 124* (0.05) %
[1]
  % difference: 123%
T. aquaticus
  MIC: 26.1 µg/L and 0.0078 µM
T. brockianus
  MIC: 0.0156 µM (≈ 0.0523 µg/mL)
T. oshimai
  MIC: 6.5 µg/L and 0.00195 µM
T. rehai
  MIC: 13 µg/L and 0.0039 µM
T. scotoductus SE-1
  MIC: 0.0625 µM (≈ 0.209 µg/mL)
T. thermophilus HB27
  MIC: 0.0039 µM (≈ 0.0131 µg/mL)

## C=C(NC(=O)[C@@H](NC(=O)[C@H](Cc1c[nH]cn1)NC(=O)[C@@H](NC(=O)[C@H](CO)NC(=O)[C@@H]1CS[C@@H](C)[C@H]2NC(=O)[C@H](C)NC(=O)[C@H](NC(=O)[C@H](CCCCN)NC(=O)[C@H](Cc3ccc(O)cc3)NC(=O)[C@H](CC(N)=O)NC(=O)[C@@H]3CS[C@@H](C)[C@@H](NC(=O)[C@H](CCCCN)NC(=O)[C@@H]4CS[C@@H](C)[C@@H](NC(=O)[C@@H]5CSC[C@@H](NC(=O)/C(=C/C)NC(=O)[C@@H](N)[C@@H](C)CC)C(=O)N[C@@H]([C@@H](C)CC)C(=O)NC(=C)C(=O)N[C@@H](CC(C)C)C(=O)N5)C(=O)N5CCC[C@H]5C(=O)NCC(=O)N4)C(=O)NCC(=O)N[C@@H](C)C(=O)N[C@@H](CC(C)C)C(=O)N[C@@H](CCSC)C(=O)NCC(=O)N3)[C@H](C)SC[C@H](NC2=O)C(=O)N[C@@H](Cc2c[nH]cn2)C(=O)N1)[C@@H](C)CC)C(C)C)C(=O)N[C@@H](CCCCN)C(=O)O [M21Y]
Thermus scotoductus SE-1
  % of wild type: 115%
[1]
  % difference: 115%
T. aquaticus
  MIC: 6.6 µg/L and 0.00195 µM
T. brockianus
  MIC: 0.0312 µM (≈ 0.106 µg/mL)
T. oshimai
  MIC: 13.2 µg/L and 0.0039 µM
T. rehai
  MIC: 13.2 µg/L and 0.0039 µM
T. scotoductus SE-1
  MIC: 0.0625 µM (≈ 0.212 µg/mL)
T. thermophilus HB27
  fold better activity than nisin A: two-fold
  MIC: 13.2 µg/L and 0.0039 µM
